Test results taken from patent US20260250322A1, “NEW PEPTIDES AS SELECTIVE IL-23 RECEPTOR INHIBITORS” (SANOFI, priority 2023, published 2026).
Numbered stars: 1 amine (or outer) side, 2 acyl side, 3 side chain; on linkers, the order of the positions; unused ones are H or OH. Bridge positions count the residues as written; N and C are the ends. Square brackets hold non-standard residues; d marks the D form. Peptide text beside a SMILES is read from it. Phe(4-OMe) = Yme, 4-methoxy-L-phenylalanine (O-methyl-tyrosine), COc1ccc(C[C@H](N[*:1])C(=O)[*:2])cc1; Tyr(Me) = Yme = 4-methoxy-L-phenylalanine (O-methyl-tyrosine), COc1ccc(C[C@H](N[*:1])C(=O)[*:2])cc1; 1Nal = N[C@@H](Cc1cccc2ccccc12)C(=O)O; 2Nal = N[C@@H](Cc1ccc2ccccc2c1)C(=O)O; Agb = N=C(N)NCC[C@H](N)C(=O)O; dOrn = NCCC[C@@H](N)C(=O)O; Orn = NCCC[C@H](N)C(=O)O; Thp = NC1(C(=O)O)CCOCC1; Aib = CC(C)(N)C(=O)O

T1: human IL-23R (Homo sapiens, UniProt Q5VWK5)
T1 sequence (Q5VWK5 24-355 limits assumed): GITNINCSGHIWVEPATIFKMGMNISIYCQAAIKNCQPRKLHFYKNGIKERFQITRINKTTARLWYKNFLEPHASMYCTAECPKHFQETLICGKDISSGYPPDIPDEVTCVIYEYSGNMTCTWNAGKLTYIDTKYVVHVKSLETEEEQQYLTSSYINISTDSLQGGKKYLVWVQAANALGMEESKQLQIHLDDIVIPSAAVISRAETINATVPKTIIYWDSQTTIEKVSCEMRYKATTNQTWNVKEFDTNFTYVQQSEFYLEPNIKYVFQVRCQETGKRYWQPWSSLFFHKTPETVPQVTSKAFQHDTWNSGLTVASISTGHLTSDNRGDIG

T2: recombinant human IL-23R-Fc chimera (human, UniProt Q5VWK5 24-353, limits assumed)
T2 construct: Recombinant reagent; also called interleukin-23 receptor; not shown: detected with goat anti-hu-IgG1-HRP antibody
T2 sequence (looked up): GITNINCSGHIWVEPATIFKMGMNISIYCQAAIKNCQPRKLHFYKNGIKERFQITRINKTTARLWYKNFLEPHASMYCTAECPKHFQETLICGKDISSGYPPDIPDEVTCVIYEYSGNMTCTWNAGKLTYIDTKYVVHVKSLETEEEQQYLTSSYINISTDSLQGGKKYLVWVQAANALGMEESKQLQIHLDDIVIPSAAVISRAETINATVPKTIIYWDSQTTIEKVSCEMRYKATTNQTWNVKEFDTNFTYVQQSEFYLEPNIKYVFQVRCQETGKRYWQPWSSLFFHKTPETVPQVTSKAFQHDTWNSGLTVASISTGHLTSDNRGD


Experiments:
[1] = biological target: T1, human IL-23R; experiment: Human ELISA IL-23/IL-23R binding inhibition; conditions: human IL-23 coated, recombinant human IL-23R-Fc chimera
In short: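 Plates coated with human IL-23 at 1 μg/ml overnight at 4° C; serially diluted peptides added with recombinant human IL-23R-Fc at 0.1 μg/ml final, 60 min at RT. Bound receptor detected with anti-human IgG1-HRP and a fluorogenic peroxidase substrate.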

[2] = tested on: IL-23 induced STAT3 signaling; experiment: Inhibition of IL-23 induced STAT3 signaling in HEK-Blue IL-23 cells (SEAP reporter); format: cell-based; conditions: human IL-23 0.25 ng/ml, read-out: Inhibition of IL-23 induced pSTAT3 (IC50 nM)
In short: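 HEK-Blue IL-23 cells (10,000/well) preincubated 60 min at 37 °C with serially diluted compound, then stimulated overnight with human IL-23 (0.25 ng/ml final). STAT3-driven SEAP in supernatant read with QUANTI-Blue after 45 min at room temperature, OD 620-655 nm; dose-response fitted.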

[3] = Chemical stability (relative purity loss) of peptide compounds in buffer formulations; format: physicochemical
Method: Purity of a compound batch was determined through UHPLC/MS prior to chemical stability measurement using Method A.
For stability assessment, the target concentration was 300 μM pure compound. Therefore, solutions from solid samples were prepared in the following buffer systems with a concentration of ~300 µM compound based on the previously determined % purity. The solid samples were obtained by drying down aliquots of a freshly prepared acetonitrile stock solution using a THERMO SPEEDVAC vacuum centrifuge. The dry down time was 3 hours.
The following buffer systems were applied: • Solubility buffer system A) 100 mM phosphate buffer pH 7.4. • Solubility buffer system B) 100 mM phosphate buffer pH 6.5. • Solubility buffer system C) 100 mM HCl pH 1.2.
Prepared solutions were filtered through […] pore size and filled into sterilized glass containers under laminar flow conditions.
[…] After this time course, the samples were centrifuged for 15 min at 2500 RCF. Then 1.5 μl of the undiluted supernatant were analysed with UHPLC-UV.
The chemical stability was rated through the relative loss of purity calculated by the equation:
[(purity after 0 hours at 37° C.)(purity after 24 hours at 37° C.)]/(purity after 0 hours at 37° C.)]*100%.
The purity is calculated as [(peak area peptide)/(total peak area)]*100%.
Buffer composition: 100 mM HCl pH 1.2, 100 mM phosphate buffer pH 6.5, 100 mM phosphate buffer pH 7.4

[4] = biological target: T2, recombinant human IL-23R-Fc chimera; experiment: competition ELISA: coated human IL-23, IL-23R-Fc 0.1 ug/ml, peptide titrated
Method: Antagonism of peptide compounds for human interleukin-23 receptor inhibitors, was determined by an ELISA assay.
A 384-well plate was coated with 50 μl/well of human IL-23 at a final concentration of 1 μg/ml and incubated overnight at 4° C. The wells were washed 3 times with 80 μl wash buffer and blocked with 80 μl blocking buffer for 60 minutes at room temperature and washed again. 20 μl of serially diluted test peptides was added to each well and subsequently 20 μl of recombinant human IL-23R-Fc chimera at final concentration of 0.1 μg/ml. The plate was incubated for 60 minutes at room temperature. After the wells were washed, bound IL-23R-Fc was detected with goat anti-hu-lgG1-HRP antibody. Signals were visualized with QuantaBlu Fluorogenic Peroxidase Substrate.

[5] = pH 6.5 (100 mM phosphate buffer)
[6] = pH 7.4 (100 mM phosphate buffer)

Row | Molecule | IC50 [1] [nM] | IC50 [2] [nM] | Conc. [mg/ml] 0 h ([3]; pH 1.2 (100 mM HCl)) [mg/mL] | Conc. [mg/ml] 24 h 37° C. ([3]; pH 1.2 (100 mM HCl)) [mg/mL] | Mass Balance [%] 24 h 37° C. ([3]; pH 1.2 (100 mM HCl)) [%] | Relative Purity Loss [%] 24 h 37° C. ([3]; pH 1.2 (100 mM HCl)) [%] | Conc. [mg/ml] 0 h [3, 5] [mg/mL] | Conc. [mg/ml] 24 h 37° C. [3, 5] [mg/mL] | Mass Balance [%] 24 h 37° C. [3, 5] [%] | Relative Purity Loss [%] 24 h 37° C. [3, 5] [%] | Conc. [mg/ml] 0 h [3, 6] [mg/mL] | Conc. [mg/ml] 24 h 37° C. [3, 6] [mg/mL] | Mass Balance [%] 24 h 37° C. [3, 6] [%] | Relative Purity Loss [%] 24 h 37° C. [3, 6] [%] | IC50 [4] [nM]
1 | COc1ccc(C[C@@H]2NC(=O)[C@H](CCCNC(=N)N)NC(=O)[C@H](CCC(N)=O)NC(=O)[C@H](Cc3c[nH]c4ccccc34)NC(=O)[C@H]([C@@H](C)O)NC(=O)[C@H](CC(N)=O)NC(=O)[C@H](NC(C)=O)CCCCNC(=O)C[C@@H](C(=O)N[C@@H](CC(N)=O)C(=O)N[C@@H](CC(N)=O)C(N)=O)NC(=O)C(C)(C)NC(=O)[C@H](Cc3ccc4ccccc4c3)NC2=O)cc1 [compound 3] (Ac-[dK]NTWQRY(Me)[2Nal][Aib]DNN-NH2; lactam 1-10) | 1.55 | 430 | 1.5 | 1.1 | −3.4 | 23.2 | 1.2 | 1.1 | −3.6 | 1.1 | 1.4 | 1.3 | −3.1 | 3.6 | 
2 | COc1ccc(C[C@@H]2NC(=O)[C@H](CCCNC(=N)N)NC(=O)[C@H](CCC(N)=O)NC(=O)[C@H](Cc3c[nH]c4ccccc34)NC(=O)[C@H]([C@@H](C)O)NC(=O)[C@H](CC(N)=O)NC(=O)[C@@H](NC(C)=O)CC(=O)NCCC[C@@H](C(=O)N[C@@H](CC(N)=O)C(=O)N[C@@H](CC(N)=O)C(N)=O)NC(=O)C(C)(C)NC(=O)[C@H](Cc3ccc4ccccc4c3)NC2=O)cc1 [compound 6] (Ac-DNTWQRY(Me)[2Nal][Aib][Orn]NN-NH2; lactam 1-10) | 1.96 | 366 | 1.6 | 1.1 | −3.8 | 27.3 | 1.4 | 1.3 | −1.4 | 0.6 | 1.4 | 1.3 | −4.8 | 1.4 | 
3 | COc1ccc(C[C@@H]2NC(=O)[C@H](CC(C)C)NC(=O)[C@H](CCC(N)=O)NC(=O)[C@H](Cc3c[nH]c4ccccc34)NC(=O)[C@H]([C@@H](C)O)NC(=O)[C@H](CC(N)=O)NC(=O)[C@H](NC(C)=O)CCCCNC(=O)C[C@@H](C(=O)N[C@@H](CC(N)=O)C(=O)N[C@@H](CC(N)=O)C(N)=O)NC(=O)C(C)(C)NC(=O)[C@H](Cc3cccc4ccccc34)NC2=O)cc1 [compound 7] (Ac-[dK]NTWQLY(Me)[1Nal][Aib]DNN-NH2; lactam 1-10) | 2.47 | 850 | 1.1 | 0.7 | −9.6 | 26.5 | 1.5 | 1.5 | −3.9 | 0.3 | 1.1 | 1.0 | −2.3 | 4.7 | 
4 | COc1ccc(C[C@@H]2NC(=O)[C@H](C)NC(=O)[C@H](CCC(N)=O)NC(=O)[C@H](Cc3c[nH]c4ccccc34)NC(=O)[C@H]([C@@H](C)O)NC(=O)[C@H](CC(N)=O)NC(=O)[C@H](NC(C)=O)CCCCNC(=O)C[C@@H](C(=O)N[C@@H](CC(N)=O)C(=O)N[C@@H](CC(N)=O)C(N)=O)NC(=O)C(C)(C)NC(=O)[C@H](Cc3cccc4ccccc34)NC2=O)cc1 [compound 8] (Ac-[dK]NTWQAY(Me)[1Nal][Aib]DNN-NH2; lactam 1-10) | 2.74 | 943 | 0.2 | 0.2 | −2.5 | 26.2 | 0.2 | 0.2 | 4.1 | −1.4 | 0.2 | 0.2 | 4.6 | 2.0 | 
5 | COc1ccc(C[C@@H]2NC(=O)[C@H](CCCNC(=N)N)NC(=O)[C@H](CCC(N)=O)NC(=O)[C@H](Cc3c[nH]c4ccccc34)NC(=O)[C@H]([C@@H](C)O)NC(=O)[C@H](CC(N)=O)NC(=O)[C@@H](NC(C)=O)CCCCNC(=O)C[C@@H](C(=O)N[C@@H](CC(N)=O)C(=O)N[C@@H](CC(N)=O)C(N)=O)NC(=O)C3(CCOCC3)NC(=O)[C@H](Cc3ccc4ccccc4c3)NC2=O)cc1 [compound 41] (Ac-KNTWQRY(Me)[2Nal][Thp]DNN-NH2; lactam 1-10) | 1.47 | 221 |  |  |  |  |  |  |  |  |  |  |  |  | 
6 | Ac-[dK]NTWQ[Agb][Phe(4-OMe)][2Nal][Aib]DNN-NH2 (lactam 1-10; SMILES COc1ccc(C[C@@H]2NC(=O)[C@H](CCNC(=N)N)NC(=O)[C@H](CCC(N)=O)NC(=O)[C@H](Cc3c[nH]c4ccccc34)NC(=O)[C@H]([C@@H](C)O)NC(=O)[C@H](CC(N)=O)NC(=O)[C@H](NC(C)=O)CCCCNC(=O)C[C@@H](C(=O)N[C@@H](CC(N)=O)C(=O)N[C@@H](CC(N)=O)C(N)=O)NC(=O)C(C)(C)NC(=O)[C@H](Cc3ccc4ccccc4c3)NC2=O)cc1) [peptide compound SEQ ID NO: 39] |  |  |  |  |  |  |  |  |  |  |  |  |  |  | 1.46
7 | Ac-[dOrn]NTWQR[Tyr(Me)][2Nal][Aib]DNN-NH2 (lactam 1-10; SMILES COc1ccc(C[C@@H]2NC(=O)[C@H](CCCNC(=N)N)NC(=O)[C@H](CCC(N)=O)NC(=O)[C@H](Cc3c[nH]c4ccccc34)NC(=O)[C@H]([C@@H](C)O)NC(=O)[C@H](CC(N)=O)NC(=O)[C@H](NC(C)=O)CCCNC(=O)C[C@@H](C(=O)N[C@@H](CC(N)=O)C(=O)N[C@@H](CC(N)=O)C(N)=O)NC(=O)C(C)(C)NC(=O)[C@H](Cc3ccc4ccccc4c3)NC2=O)cc1) [peptide compound SEQ ID NO: 27] |  |  |  |  |  |  |  |  |  |  |  |  |  |  | 19.7
